Structures can show the parent of a compound that is named as a salt.
How the values were obtained:
[1] = biological target: T1, human JAK2 (a.a. 828-1132) (Homo sapiens, UniProt O60674); assay: In vitro JAK kinase assay (HTRF), JAK2; format: biochemical; conditions: JAK2, 30 μM ATP; read-out: EXAMPLE A HTS-JAK2 HTRF-2 IC50
T1 construct: JAK2 (a.a. 828-1132); His tag (N); made in house; host or cells: insect cells (baculovirus)
Description: (§1) Compounds herein were tested for inhibitory activity of JAK targets according to the following in vitro assay described in Park et al., Analytical Biochemistry 1999, 269, 94-104. The catalytic domains of human JAK1 (a.a. 837-1142), JAK2 (a.a. 828-1132) and JAK3 (a.a. 781-1124) with an N-terminal His tag were expressed using baculovirus in insect cells and purified. The catalytic activity of JAK1, JAK2 or JAK3 was assayed by measuring the phosphorylation of a biotinylated peptide. The phosphorylated peptide was detected by homogenous time resolved fluorescence (HTRF). IC50s of compounds were measured for each kinase in the reactions that contain the enzyme, ATP and 500 nM peptide in 50 mM Tris (pH 7.8) buffer with 100 mM NaCl, 5 mM DTT, and 0.1 mg/mL (0.01%) BSA. The ATP concentration in the reactions was 90 μM for JAK1, 30 μM for JAK2 and 3 μM for JAK3. Reactions were carried out at room temperature for 1 hr and then stopped with 20 μL 45 mM EDTA, 300 nM SA-APC, 6 nM Eu—Py20 in assay buffer (Perkin Elmer, Boston, Mass.). Binding to the Europium labeled antibody took place for 40 minutes and HTRF signal was measured on a Fusion plate reader (Perkin Elmer, Boston, Mass.).

[2] = biological target: T2, human JAK3 (a.a. 781-1124) (Homo sapiens, UniProt P52333); assay: In vitro JAK kinase assay (HTRF), JAK3; format: biochemical; conditions: JAK3, 3 μM ATP; read-out: EXAMPLE A JAK2-JAK3 HTRF-2 IC50
T2 construct: JAK3 (a.a. 781-1124); His tag (N); made in house; host or cells: insect cells (baculovirus)
Description: as §1

TF1-BCRABL1 cells = TF1-BCRABL1 cells (Homo sapiens, UniProt P00519); assay: ABL1 cell based assay: viability of ABL1-dependent cell line (CellTiter-Glo); conditions: 72 hours, cell viability; read-out: EXAMPLE F JAK2-TF1-BCRABL1 IC50
Description: One or more compounds herein were tested for inhibitory activity of ABL1 targets according to at least one of the following cellular assays.
Cancer cell lines dependent on ABL1 kinase activity for proliferation and/or survival were plated at 3000 cells per well (96 well plate format) in RPMI 1640, and 10% FBS. Compounds were added to the cells in DMSO/media (final concentration 0.2% DMSO) and incubated for 72 hours at 37° C., 5% CO2. The effect of compound on cell viability was assessed using the CellTiter-Glo Luminescent Cell Viability Assay (Promega) followed by TopCount (Perkin Elmer, Boston, Mass.) quantitation. ABL1-dependent cell lines can include those naturally dependent on ABL1 activity or those engineered to be dependent on ABL1 activity (e.g. BaF/3 cells). The latter can be generated using wild-type ABL1 or mutant ABL1 (such as T315I ABL1) so that the activity of compounds can be assessed against different variants of the ABL1 kinase. Potential off-target effects of compounds were measured in parallel using a non-ABL1 driven cell line with the same assay readout. […] All experiments were performed in duplicate or greater.

[3] = biological target: T3, human JAK1 (a.a. 837-1142) (Homo sapiens, UniProt P23458); assay: In vitro JAK kinase assay (HTRF), JAK1; format: biochemical; conditions: JAK1, 90 μM ATP; read-out: EXAMPLE A JAK2-JAK1 HTRF-2 IC50
T3 construct: human JAK1 (a.a. 837-1142); His tag (N); made in house; host or cells: insect cells (baculovirus)
Description: as §1

T2 sequence (P52333 781-1124): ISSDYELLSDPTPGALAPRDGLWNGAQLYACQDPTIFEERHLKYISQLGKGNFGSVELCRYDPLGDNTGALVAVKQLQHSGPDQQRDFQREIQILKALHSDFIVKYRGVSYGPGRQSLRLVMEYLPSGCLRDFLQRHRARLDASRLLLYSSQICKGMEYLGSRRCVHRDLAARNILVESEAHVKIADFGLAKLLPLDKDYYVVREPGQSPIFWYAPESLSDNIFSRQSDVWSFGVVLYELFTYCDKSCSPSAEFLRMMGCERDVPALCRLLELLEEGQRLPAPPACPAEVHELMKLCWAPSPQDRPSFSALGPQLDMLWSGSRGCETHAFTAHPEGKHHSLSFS
T3 sequence (P23458 849-1154): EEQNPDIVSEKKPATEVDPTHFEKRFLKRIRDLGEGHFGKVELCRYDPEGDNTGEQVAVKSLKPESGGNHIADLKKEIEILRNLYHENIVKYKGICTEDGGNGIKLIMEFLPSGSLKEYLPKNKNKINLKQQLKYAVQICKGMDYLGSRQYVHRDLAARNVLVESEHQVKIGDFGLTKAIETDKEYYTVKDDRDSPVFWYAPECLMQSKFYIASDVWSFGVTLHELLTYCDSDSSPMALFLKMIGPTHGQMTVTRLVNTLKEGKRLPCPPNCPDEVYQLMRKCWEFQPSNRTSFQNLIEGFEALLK
TF1-BCRABL1 cells, sequence (P00519 whole entry, change not shown): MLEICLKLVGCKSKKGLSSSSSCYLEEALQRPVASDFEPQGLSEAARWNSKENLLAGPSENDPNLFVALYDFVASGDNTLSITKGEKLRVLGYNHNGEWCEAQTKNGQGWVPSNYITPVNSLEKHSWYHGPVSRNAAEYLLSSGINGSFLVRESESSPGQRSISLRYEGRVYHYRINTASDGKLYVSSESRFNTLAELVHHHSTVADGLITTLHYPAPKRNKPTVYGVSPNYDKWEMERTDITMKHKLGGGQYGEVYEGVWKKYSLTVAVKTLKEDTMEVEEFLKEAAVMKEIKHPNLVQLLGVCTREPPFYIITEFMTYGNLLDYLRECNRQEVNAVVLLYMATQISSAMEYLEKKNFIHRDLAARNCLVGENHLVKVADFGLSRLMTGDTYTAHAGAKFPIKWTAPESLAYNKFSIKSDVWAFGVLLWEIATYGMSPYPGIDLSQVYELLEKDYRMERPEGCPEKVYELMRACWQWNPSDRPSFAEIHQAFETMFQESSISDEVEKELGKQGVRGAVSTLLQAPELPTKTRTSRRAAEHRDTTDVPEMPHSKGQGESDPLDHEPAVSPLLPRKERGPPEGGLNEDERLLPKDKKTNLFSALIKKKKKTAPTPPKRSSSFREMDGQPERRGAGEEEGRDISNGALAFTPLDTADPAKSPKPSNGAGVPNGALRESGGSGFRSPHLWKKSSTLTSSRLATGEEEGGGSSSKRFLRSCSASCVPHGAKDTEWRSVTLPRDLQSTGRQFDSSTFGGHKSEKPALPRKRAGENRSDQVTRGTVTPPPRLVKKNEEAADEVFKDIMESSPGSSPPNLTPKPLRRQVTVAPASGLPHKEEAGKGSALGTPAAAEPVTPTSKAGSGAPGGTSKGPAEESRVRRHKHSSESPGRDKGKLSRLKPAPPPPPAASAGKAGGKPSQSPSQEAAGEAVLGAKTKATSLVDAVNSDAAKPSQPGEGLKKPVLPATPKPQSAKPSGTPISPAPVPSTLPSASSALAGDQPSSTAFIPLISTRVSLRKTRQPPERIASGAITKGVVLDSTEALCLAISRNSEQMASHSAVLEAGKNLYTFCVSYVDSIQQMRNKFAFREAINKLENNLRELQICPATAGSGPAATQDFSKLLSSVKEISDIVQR
T1 sequence (O60674 828-1132): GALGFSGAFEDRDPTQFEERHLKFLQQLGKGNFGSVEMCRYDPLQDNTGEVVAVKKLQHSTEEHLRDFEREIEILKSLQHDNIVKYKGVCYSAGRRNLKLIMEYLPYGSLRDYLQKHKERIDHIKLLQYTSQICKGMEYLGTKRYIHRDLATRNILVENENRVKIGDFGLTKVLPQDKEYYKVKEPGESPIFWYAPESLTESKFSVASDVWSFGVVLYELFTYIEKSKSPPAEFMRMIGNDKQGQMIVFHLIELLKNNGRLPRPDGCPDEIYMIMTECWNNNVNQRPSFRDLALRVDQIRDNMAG

Cc1ccc(NC(=O)c2cc(C(F)(F)F)cc(Cl)c2F)cc1-c1ccc2c(c1)[nH]c1ncncc12 [Example 8, 3-chloro-2-fluoro-N-[4-methyl-3-(9H-pyrimido[4,5-b]-indol-7-yl)phenyl]-5-(trifluoro-methyl)benzamide]
≤ 500 nM: IC50 [1] | IC50 [2] | GI50 (TF1-BCRABL1 cells) | IC50 [3]

Cc1ncc(NC(=O)c2cc(-n3cnc(C=O)c3)cc(C(F)(F)F)c2)cc1-c1ccc2c(c1)[nH]c1ncncc12 [Example 74, 3-(4-formyl-1H-imidazol-1-yl)-N-[6-methyl-5-(9H-pyrimido[4,5-b]indol-7-yl)pyridin-3-yl]-5-(trifluoromethyl)benzamide bis(trifluoroacetate)]
≤ 500 nM: IC50 [1] | IC50 [2] | GI50 (TF1-BCRABL1 cells) | IC50 [3]

Cc1ccc(NC(=O)c2cc(-n3cncn3)cc(C(F)(F)F)c2)cc1-c1ccc2c(c1)[nH]c1ncncc12 [Example 24, N-[4-methyl-3-(9H-pyrimido-[4,5-b]indol-7-yl)phenyl]-3-(1H-1,2,4-triazol-1-yl)-5-(trifluoromethyl)benzamide]
≤ 500 nM: IC50 [1] | IC50 [2] | GI50 (TF1-BCRABL1 cells) | IC50 [3]

Cc1ccc(NC(=O)c2cc(N3CCCC(O)C3)cc(C(F)(F)F)c2)cc1-c1ccc2c(c1)[nH]c1ncncc12 (stereo not shown) [Example 30, 3-(3-hydroxypiperidin-1-yl)-N-[4-methyl-3-(9H-pyrimido[4,5-b]indol-7-yl)phenyl]-5-(trifluoromethyl)benzamide]
≤ 500 nM: IC50 [1] | IC50 [2] | GI50 (TF1-BCRABL1 cells) | IC50 [3]

Cc1ncc(NC(=O)c2cc(-n3ccnc3)cc(C(F)(F)F)c2)cc1-c1ccc2c(c1)[nH]c1ncncc12 [Example 72, 3-(1H-imidazol-1-yl)-N-[6-methyl-5-(9H-pyrimido[4,5-b]indol-7-yl)pyridin-3-yl]-5-(trifluoromethyl)benzamide tris(trifluoroacetate)]
≤ 500 nM: IC50 [1] | IC50 [2] | GI50 (TF1-BCRABL1 cells) | IC50 [3]

COc1ccc(C(=O)Nc2ccc(C)c(-c3ccc4c(c3)[nH]c3ncncc34)c2)cc1C(F)(F)F [Example 10, 4-methoxy-N-[4-methyl-3-(9H-pyrimido[4,5-b]indol-7-yl)-phenyl]-3-(trifluoromethyl)-benzamide]
≤ 500 nM: IC50 [1] | IC50 [2] | GI50 (TF1-BCRABL1 cells) | IC50 [3]

Cc1ncc(NC(=O)c2cc(NCCN(C)C)cc(C(F)(F)F)c2)cc1-c1ccc2c(c1)[nH]c1ncncc12 [Example 76, 3-[2-(dimethylamino)ethyl]amino-N-[6-methyl-5-(9H-pyrimido[4,5-b]indol-7-yl)pyridin-3-yl]-5-(trifluoromethyl)benzamide tris(trifluoroacetate)]
≤ 500 nM: IC50 [1] | IC50 [2] | GI50 (TF1-BCRABL1 cells) | IC50 [3]

Cc1ccc(NC(=O)c2cccc(C(F)(F)F)c2)cc1-c1ccc2c(c1)[nH]c1nc(N)ncc12 [Example 67, N-[3-(2-Amino-9H-pyrimido[4,5-b]indol-7-yl)-4-methylphenyl]-3-(trifluoro-methyl)benzamide trifluoroacetate]
≤ 500 nM: IC50 [1] | IC50 [2] | GI50 (TF1-BCRABL1 cells) | IC50 [3]

Cc1ccc(NC(=O)c2cc(-n3ccnc3)cc(C(F)(F)F)c2)cc1-c1ccc2c(c1)[nH]c1ncncc12 [Example 23, 3-(1H-imidazol-1-yl)-N-[4-methyl-3-(9H-pyrimido[4,5-b]-indol-7-yl)phenyl]-5-(trifluoromethyl)benzamide]
≤ 500 nM: IC50 [1] | IC50 [2] | GI50 (TF1-BCRABL1 cells) | IC50 [3]

Cc1ccc(NC(=O)c2cc(N(C)C)cc(C(F)(F)F)c2)cc1-c1ccc2c(c1)[nH]c1ncncc12 [Example 36, 3-(dimethylamino)-N-[4-methyl-3-(9H-pyrimido[4,5-b]-indol-7-yl)phenyl]-5-(trifluoromethyl)benzamide]
≤ 500 nM: IC50 [1] | IC50 [2] | GI50 (TF1-BCRABL1 cells) | IC50 [3]

Cc1ccc(NC(=O)c2cc(NCCCN(C)C)cc(C(F)(F)F)c2)cc1-c1ccc2c(c1)[nH]c1ncncc12 [Example 33, 3-{[3-(dimethylamino)propyl]-amino}-N-[4-methyl-3-(9H-pyrimido[4,5-b]indol-7-yl)-phenyl]-5-(trifluoromethyl)-benzamide]
≤ 500 nM: IC50 [1] | IC50 [2] | GI50 (TF1-BCRABL1 cells) | IC50 [3]

Cc1ccc(NC(=O)c2cc(C(F)(F)F)ccc2F)cc1-c1ccc2c(c1)[nH]c1ncncc12 [Example 5, 2-fluoro-N-[4-methyl-3-(9H-pyrimido[4,5-b]indol-7-yl)-phenyl]-5-(trifluoromethyl)-benzamide]
≤ 500 nM: IC50 [1] | IC50 [2] | GI50 (TF1-BCRABL1 cells) | IC50 [3]

Cc1ccc(NC(=O)c2cc(-n3cnc(CO)c3)cc(C(F)(F)F)c2)cc1-c1ccc2c(c1)[nH]c1ncncc12 [Example 21, 3-[4-(Hydroxymethyl)-1H-imidazol-1-yl]-N-[4-methyl-3-(9H-pyrimido[4,5-b]indol-7-yl)phenyl]-5-(trifluoromethyl)benzamide bis(trifluoroacetate) (salt)]
≤ 500 nM: IC50 [1] | IC50 [2] | GI50 (TF1-BCRABL1 cells) | IC50 [3]

Cc1ccc(NC(=O)c2cc(C(F)(F)F)cc(C(F)(F)F)c2)cc1-c1ccc2c(c1)[nH]c1ncncc12 [Example 9, N-[4-methyl-3-(9H-pyrimido-[4,5-b]indol-7-yl)phenyl]-3,5-bis(trifluoromethyl)benzamide]
≤ 500 nM: IC50 [1] | IC50 [2] | GI50 (TF1-BCRABL1 cells) | IC50 [3]

Cc1ncc(NC(=O)c2cc(NCCCN(C)C)cc(C(F)(F)F)c2)cc1-c1ccc2c(c1)[nH]c1ncncc12 [Example 77, 3-[3-(dimethylamino)propyl]amino-N-[6-methyl-5-(9H-pyrimido[4,5-b]indol-7-yl)pyridin-3-yl]-5-(trifluoromethyl)benzamide tris(trifluoroacetate)]
≤ 500 nM: IC50 [1] | IC50 [2] | GI50 (TF1-BCRABL1 cells) | IC50 [3]

Cc1ccc(NC(=O)c2cc(N3CCC(N(C)C)C3)cc(C(F)(F)F)c2)cc1-c1ccc2c(c1)[nH]c1ncncc12 (stereo not shown) [Example 37, 3-[3-(dimethylamino)-pyrrolidin-1-yl]-N-[4-methyl-3-(9H-pyrimido[4,5-b]indol-7-yl)phenyl]-5-(trifluoromethyl)-benzamide]
≤ 500 nM: IC50 [1] | IC50 [2] | GI50 (TF1-BCRABL1 cells) | IC50 [3]

Cc1ccc(NC(=O)c2cc(C(F)(F)F)ccn2)cc1-c1ccc2c(c1)[nH]c1ncncc12 [Example 18, N-[4-methyl-3-(9H-pyrimido[4,5-b]indol-7-yl)-phenyl]-4-(trifluoromethyl) pyridine-2-carboxamide]
≤ 500 nM: IC50 [1] | IC50 [2] | GI50 (TF1-BCRABL1 cells) | IC50 [3]

Cc1ccc(NC(=O)c2cc(N3CCN(CCO)CC3)cc(C(F)(F)F)c2)cc1-c1ccc2c(c1)[nH]c1ncncc12 [Example 32, 3-[4-(2-hydroxyethyl)piperazin-1-yl]-N-[4-methyl-3-(9H-pyrimido[4,5-b]indol-7-yl)-phenyl]-5-(trifluoromethyl)-benzamide]
≤ 500 nM: IC50 [1] | IC50 [2] | GI50 (TF1-BCRABL1 cells) | IC50 [3]

Cc1ccc(NC(=O)c2ccc(F)c(C(F)(F)F)c2)cc1-c1ccc2c(c1)[nH]c1ncncc12 [Example 4, 4-fluoro-N-[4-methyl-3-(9H-pyrimido[4,5-b]indol-7-yl)-phenyl]-3-(trifluoromethyl)benzamide]
≤ 500 nM: IC50 [1] | IC50 [2] | GI50 (TF1-BCRABL1 cells) | IC50 [3]

From US8513270B2, “Substituted heterocycles as Janus kinase inhibitors” (Incyte Corporation, priority 2006, dated 2013)
